Measurements from US20110098221A1, “INHIBITORS OF Akt ACTIVITY” (priority 2008, published 2011).

Molecular target: T1, full length AKT1 (Homo sapiens, UniProt P31749)
T1 construct: His tag (from vector pFastBacHTb) (N); made in house; host or cells: baculovirus; Sf9 / T. ni insect cells
Experiment: Full-length AKT enzyme assay (substrate phosphorylation, SPA)
Format: biochemical
Details: in at least one experimental run; pIC50 = -log(IC50), IC50 in molar units; 4 uM ATP, 10 nM activated enzyme; read-out: pIC50 against full length AKT1 (converted)

T1 sequence (P31749 whole entry): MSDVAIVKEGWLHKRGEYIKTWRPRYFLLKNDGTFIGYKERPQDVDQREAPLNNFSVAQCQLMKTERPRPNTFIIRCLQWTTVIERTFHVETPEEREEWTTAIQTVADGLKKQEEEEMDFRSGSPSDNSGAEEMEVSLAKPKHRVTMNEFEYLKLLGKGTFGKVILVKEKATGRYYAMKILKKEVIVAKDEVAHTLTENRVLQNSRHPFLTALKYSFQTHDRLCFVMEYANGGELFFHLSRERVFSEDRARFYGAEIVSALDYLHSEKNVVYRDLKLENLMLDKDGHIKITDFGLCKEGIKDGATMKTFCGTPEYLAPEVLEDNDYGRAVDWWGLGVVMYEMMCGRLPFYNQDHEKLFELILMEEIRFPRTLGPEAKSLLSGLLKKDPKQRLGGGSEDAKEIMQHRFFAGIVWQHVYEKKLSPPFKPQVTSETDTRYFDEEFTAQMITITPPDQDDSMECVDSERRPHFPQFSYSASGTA

IC50: 6.31 nM
SMILES: Cn1nccc1-c1cnc(C(=O)N[C@H](CN)Cc2cccc(F)c2)s1 [Example 1, N-{(1S)-2-amino-1-[(3-fluorophenyl)methyl]ethyl}-5-(1-methyl-1H-pyrazol-5-yl)-1,3-thiazole-2-carboxamide]
